“And” between values parts separate entries of the source, which are not always exact repeats. Equal values may be shown once.
Settings: Liquid, Vibrating tube method

CCCCCCC(=O)OCC(COC(=O)CCCCCC)(COC(=O)CCCCCC)COC(=O)CCCCCC [pentaerythritol tetraheptanoate]
Settings | mass density
303.15 K, 31425 kPa | 989 kg/m3
303.15 K, 31458 kPa | 989.1 kg/m3
303.15 K, 31487 kPa | 989.1 kg/m3
303.15 K, 31515 kPa | 989 kg/m3
303.15 K, 31543 kPa | 989.1 kg/m3
303.15 K, 31577 kPa | 989.1 kg/m3
303.15 K, 31605 kPa | 989 kg/m3
303.15 K, 31639 kPa | 989.1 kg/m3
303.15 K, 31667 kPa | 989.1 kg/m3
303.15 K, 31696 kPa | 989.1 kg/m3
303.15 K, 31724 kPa | 989.2 kg/m3
303.15 K, 31759 kPa | 989.2 kg/m3
303.15 K, 31788 kPa | 989.2 kg/m3
303.15 K, 31817 kPa | 989.3 kg/m3
303.15 K, 31846 kPa | 989.3 kg/m3
303.15 K, 31880 kPa | 989.3 kg/m3
303.15 K, 31909 kPa | 989.3 kg/m3
303.15 K, 31938 kPa | 989.3 kg/m3
303.15 K, 31973 kPa | 989.4 kg/m3
303.15 K, 32002 kPa | 989.3 kg/m3
303.15 K, 32036 kPa | 989.4 kg/m3
303.15 K, 32065 kPa | 989.4 kg/m3
303.15 K, 32094 kPa | 989.3 kg/m3
303.15 K, 32128 kPa | 989.5 kg/m3
303.15 K, 32158 kPa | 989.4 kg/m3
303.15 K, 32186 kPa | 989.4 kg/m3
303.15 K, 32221 kPa | 989.4 kg/m3
303.15 K, 32250 kPa | 989.5 kg/m3
303.15 K, 32280 kPa | 989.5 kg/m3
303.15 K, 32316 kPa | 989.5 kg/m3
303.15 K, 32345 kPa | 989.5 kg/m3
303.15 K, 32375 kPa | 989.4 kg/m3
303.15 K, 32405 kPa | 989.5 kg/m3
303.15 K, 32440 kPa | 989.6 kg/m3
303.15 K, 32470 kPa | 989.6 kg/m3
303.15 K, 32500 kPa | 989.5 kg/m3
303.15 K, 32536 kPa | 989.7 kg/m3
303.15 K, 32566 kPa | 989.6 kg/m3
303.15 K, 32602 kPa | 989.7 kg/m3
303.15 K, 32632 kPa | 989.6 kg/m3
303.15 K, 32661 kPa | 989.6 kg/m3
303.15 K, 32691 kPa | 989.7 kg/m3
303.15 K, 32727 kPa | 989.7 kg/m3
303.15 K, 32757 kPa | 989.6 kg/m3
303.15 K, 32787 kPa | 989.8 kg/m3
303.15 K, 32824 kPa | 989.8 kg/m3
303.15 K, 32854 kPa | 989.8 kg/m3
303.15 K, 32890 kPa | 989.8 kg/m3
303.15 K, 32920 kPa | 989.7 kg/m3
303.15 K, 32951 kPa | 989.7 kg/m3
303.15 K, 32984 kPa | 989.9 kg/m3
303.15 K, 33014 kPa | 989.7 kg/m3
303.15 K, 33051 kPa | 989.9 kg/m3
303.15 K, 33082 kPa | 990 kg/m3
303.15 K, 33112 kPa | 989.9 kg/m3
303.15 K, 33149 kPa | 990 kg/m3
303.15 K, 33180 kPa | 990 kg/m3
303.15 K, 33217 kPa | 990 kg/m3
303.15 K, 33248 kPa | 989.9 kg/m3
303.15 K, 33279 kPa | 990.1 kg/m3
303.15 K, 33317 kPa | 990 kg/m3
303.15 K, 33348 kPa | 990 kg/m3
303.15 K, 33381 kPa | 990 kg/m3
303.15 K, 33413 kPa | 990 kg/m3
303.15 K, 33450 kPa | 990.1 kg/m3
303.15 K, 33482 kPa | 990 kg/m3
303.15 K, 33514 kPa | 990.2 kg/m3
303.15 K, 33546 kPa | 990.1 kg/m3
303.15 K, 33584 kPa | 990.1 kg/m3
303.15 K, 33616 kPa | 990.2 kg/m3
303.15 K, 33648 kPa | 990.2 kg/m3
303.15 K, 33686 kPa | 990.2 kg/m3
303.15 K, 33718 kPa | 990.2 kg/m3
303.15 K, 33756 kPa | 990.2 kg/m3
303.15 K, 33788 kPa | 990.2 kg/m3
303.15 K, 33820 kPa | 990.3 kg/m3
303.15 K, 33852 kPa | 990.3 kg/m3
303.15 K, 33890 kPa | 990.4 kg/m3
303.15 K, 33921 kPa | 990.4 kg/m3
303.15 K, 33952 kPa | 990.5 kg/m3
303.15 K, 33993 kPa | 990.4 kg/m3
303.15 K, 34038 kPa | 990.4 kg/m3
303.15 K, 34093 kPa | 990.4 kg/m3
303.15 K, 34123 kPa | 990.4 kg/m3
303.15 K, 34208 kPa | 990.5 kg/m3
303.15 K, 34249 kPa | 990.5 kg/m3
303.15 K, 34280 kPa | 990.6 kg/m3
303.15 K, 34305 kPa | 990.5 kg/m3
303.15 K, 34336 kPa | 990.6 kg/m3
303.15 K, 34363 kPa | 990.5 kg/m3
303.15 K, 34390 kPa | 990.7 kg/m3
303.15 K, 34423 kPa | 990.6 kg/m3
303.15 K, 34452 kPa | 990.7 kg/m3
303.15 K, 34482 kPa | 990.6 kg/m3
303.15 K, 34512 kPa | 990.7 kg/m3
303.15 K, 34545 kPa | 990.6 kg/m3
303.15 K, 34553 kPa | 990.8 kg/m3
303.15 K, 34554 kPa | 990.7 kg/m3
303.15 K, 34556 kPa | 990.7 kg/m3
323.14 K, 99.4 kPa | 955.6 kg/m3 and 955.7 kg/m3
323.14 K, 99.5 kPa | 955.7 kg/m3 and 955.6 kg/m3
323.14 K, 99.7 kPa | 955.7 kg/m3 [middle of 4 runs]
323.14 K, 99.9 kPa | 955.7 kg/m3 [middle of 4 runs]
323.14 K, 100 kPa | 955.7 kg/m3 and 955.8 kg/m3 and 955.6 kg/m3
323.14 K, 100.1 kPa | 955.7 kg/m3
323.14 K, 100.2 kPa | 955.6 kg/m3 and 955.7 kg/m3
323.14 K, 100.4 kPa | 955.7 kg/m3
323.14 K, 101.1 kPa | 955.6 kg/m3
323.14 K, 135.4 kPa | 955.7 kg/m3
323.14 K, 135.5 kPa | 955.7 kg/m3
323.14 K, 137.4 kPa | 955.7 kg/m3

Reference: the NIST ThermoML archive (doi:10.1021/je060271a)
